One may read the Emax as the size of the effect at its maximum, as opposed to the concentration needed. The term EC50 denotes the concentration that produces a half-maximal response.

Like-named read-outs stand apart in the source and are kept apart here.

Among the data in patent US20250230155A1 (Vanderbilt University, priority 2021, published 2025) are Emax and EC50 values, retold here.

This test addresses T1, human mAChR M4 (Homo sapiens, UniProt P08173).
T1 construct: expressed in transfected cells
T1 sequence (P08173 1-479): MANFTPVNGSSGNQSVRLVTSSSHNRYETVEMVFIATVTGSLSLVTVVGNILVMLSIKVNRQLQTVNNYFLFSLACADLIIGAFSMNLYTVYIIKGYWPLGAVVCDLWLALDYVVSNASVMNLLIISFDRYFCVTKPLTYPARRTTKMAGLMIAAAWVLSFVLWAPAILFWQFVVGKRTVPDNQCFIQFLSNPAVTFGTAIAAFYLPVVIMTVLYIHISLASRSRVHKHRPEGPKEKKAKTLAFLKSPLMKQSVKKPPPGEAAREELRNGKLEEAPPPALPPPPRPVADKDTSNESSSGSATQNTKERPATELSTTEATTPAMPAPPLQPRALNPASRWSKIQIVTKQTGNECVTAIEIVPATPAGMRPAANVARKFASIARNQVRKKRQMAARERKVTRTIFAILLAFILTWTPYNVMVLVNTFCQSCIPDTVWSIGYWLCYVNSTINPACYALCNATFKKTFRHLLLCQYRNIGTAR
The test is described as follows: mAChR M4 cell-based functional assay (calcium mobilization, CHO-K1 hM4-Gqi5 cells). The note with it: for EC50: increase in the EC20 acetylcholine response, CHO-K1 hM4-Gqi5 cells; for Emax at 30 µM: CHO-K1, % ACh maximum at 30 μM, human M4. Here is the method:
Human and rat M4 cDNAs, along with the chimeric G protein Gqi5, were transfected into Chinese hamster ovary (CHO-K1) cells purchased from the American Type Culture Collection using Lipofectamine2000. hM4-Gqi5 cells were grown in Ham's F-12 medium containing 10% heat-inactivated fetal bovine serum (FBS), 20 mM HEPES, 50 μg/mL G418 sulfate, and 500 μg/mL Hygromycin B. rM4-Ggi5 cells were grown in DiVEM containing 10% heat-inactivated FBS, 20 mM THEPES, 400 μμg/mL G418 sulfate, and 500 μμg/mL Hygromycin B.
For high throughput measurement of agonist-evoked increases in intracellular calcium, CHO-K1 cells stably expressing muscarinic receptors were plated in growth medium lacking G418 and hygromycin at 15,000 cells/20 μL/well in Greiner 384-well black-walled, tissue culture (TC)-treated, clear-bottom plates (VWR). Cells were incubated overnight at 37° C. and 5% CO2. The next day, cells were washed using an ELX 405 (BioTek) with assay buffer; the final volume was then aspirated to 20 μL. Next, 20 μL of a […] of Fluo-4/acetoxymethyl ester (Invitrogen, Carlsbad, CA), prepared as a 2.3 mM stock in DMSO and mixed in a 1:1 ratio with 10% (w/v) Pluronic F-127 and diluted in assay buffer, was added to the wells and the cell plates were incubated for 50 min at 37° C. and 5% C02. Dye was removed by washing with the ELX 405 and the final volume was aspirated to 20 μL. Compound master plates were formatted in an 11 point concentration-response curve (CRC) format (1:3 dilutions) in 100% DMSO with a starting concentration of 10 mM using a BRAVO liquid handler (Agilent). Test compound CRCs were then transferred to daughter plates (240 nL) using the Echo acoustic plate reformatter (Labcyte, Sunnyvale, CA) and then diluted into assay buffer (40 μL) to a 2× stock using a Thermo Fisher Combi (Thermo Fisher Scientific, Waltham, MA).
Calcium flux was measured using the Functional Drug Screening System (FDSS) 6000 or 7000 (Hamamatsu Corporation, Tokyo, Japan) as an increase in the fluorescent static ratio. Compounds were applied to cells (20 μL, 2×) using the automated system of the FDSS at 2-4 seconds into the protocol and the data were collected at 1 Hz. At 144 seconds, 10 μL of an EC20 concentration of the muscarinic receptor agonist acetylcholine was added (5×), followed by the addition of 12 μL of an EC80 concentration of acetylcholine at the 230 second time point (5×). Agonist activity was analyzed as a concentration-dependent increase in calcium mobilization upon compound addition. Positive allosteric modulator activity was analyzed as a concentration-dependent increase in the EC20 acetylcholine response. Antagonist activity was analyzed as a concentration-dependent decrease in the EC80 acetylcholine response. Concentration-response curves were generated using a four-parameter logistical equation in XLFit curve fitting software (IDBS, Bridgewater, NJ) for Excel (Microsoft, Redmond, WA) or Prism (GraphPad Software, Inc., San Diego, CA).
Compounds were synthesized as described above. Activity (EC50 and Emax) was determined in the mAChR M4 cell-based functional assay as described above and the data are shown in Table 2. The compound number corresponds to the compound numbers used in Table 1.

Setting [1] is: positive allosteric modulator activity, read-out: Human M4 EC50.

Consider `Cc1cc(C#N)cnc1N1CCc2ncc(C3CC3)cc2C1` [Example 330, 6-(3-cyclopropyl-7,8-dihydro-1,6-naphthyridin-6(5H)-yl)-5-methylnicotinonitrile], for which, where the note is “CHO-K1”, the maximal response (Emax) turned out to be 85%. For the same compound, the EC50 (Human M4 EC50, positive allosteric modulator activity) came to 71 nM.
`Cc1cc(C#N)cnc1N1CCc2ncc(N(C)c3ccnn3C)cc2C1` [Example 331, 5-methyl-6-(3-(methyl(1-methyl-1H-pyrazol-5-yl)amino)-7,8-dihydro-1,6-naphthyridin-6(5H)-yl)nicotinonitrile]: the maximal effect (Emax) at 30 µM stood at 86%. Under setting [1], the EC50 was found to be 43 nM.
For the compound `Cc1c(C#N)nnc(N2CCc3ncc(-c4ccc(N5CC6(COC6)C5)nc4)cc3C2)c1C` [Example 332, 6-(3-(6-(2-oxa-6-azaspiro[3.3]heptan-6-yl)pyridin-3-yl)-7,8-dihydro-1,6-naphthyridin-6(5H)-yl)-4,5-dimethylpyridazine-3-carbonitrile], the Emax at 30 µM was determined as 83%. Moreover, the half-maximal effective concentration (EC50) under setting [1] was determined as 824 nM.
As for `Cc1c(C#N)nnc(N2CCc3ncc(-c4ccc(N5CC6CC5CO6)nc4)cc3C2)c1C` (centres unmarked) [Example 333, 6-(3-(6-(2-oxa-5-azabicyclo[2.2.1]heptan-5-yl)pyridin-3-yl)-7,8-dihydro-1,6-naphthyridin-6(5H)-yl)-4,5-dimethylpyridazine-3-carbonitrile], the Emax at 30 µM is 72%. Under setting [1], the half-maximal effective concentration (EC50) is 817 nM.
For `Cc1c(C#N)nnc(N2CCc3ncc(-c4ccc(F)nc4)cc3C2)c1C` [Example 334, 6-(3-(6-fluoropyridin-3-yl)-7,8-dihydro-1,6-naphthyridin-6(5H)-yl)-4,5-dimethylpyridazine-3-carbonitrile], the Emax at 30 µM was 60%. In addition, under setting [1], the EC50 was found to be 582 nM.
The like results for `Cc1c(C#N)nnc(N2CCc3ncc(-c4ccc(N5CCN(C6CC6)CC5)nc4)cc3C2)c1C` [Example 335, 6-(3-(6-(4-cyclopropylpiperazin-1-yl)pyridin-3-yl)-7,8-dihydro-1,6-naphthyridin-6(5H)-yl)-4,5-dimethylpyridazine-3-carbonitrile] were, in that order, 41% and 386 nM.
Taken in the same sequence, the figures for `Cc1cc(C#N)cnc1N1CCc2ncc(-c3ccnc(C#N)c3)cc2C1` [Example 336, 4-(6-(5-cyano-3-methylpyridin-2-yl)-5,6,7,8-tetrahydro-1,6-naphthyridin-3-yl)picolinonitrile] were 49% and 258 nM.
Turning to `Cc1cc(C#N)cnc1N1CCc2ncc(-c3cc(F)ncc3F)cc2C1` [Example 337, 6-(3-(2,5-difluoropyridin-4-yl)-7,8-dihydro-1,6-naphthyridin-6(5H)-yl)-5-methylnicotinonitrile], the maximum response (Emax) at 30 µM came to 71%. In addition, under setting [1], the EC50 is 270 nM.
Taken in the same sequence, the figures for `COc1cc(-c2cnc3c(c2)CN(c2ncc(C#N)cc2C)CC3)ccn1` [Example 338, 6-(3-(2-methoxypyridin-4-yl)-7,8-dihydro-1,6-naphthyridin-6(5H)-yl)-5-methylnicotinonitrile] were 91% and 315 nM.
The like results for `Cc1cc(C#N)cnc1N1CCc2ncc(-c3ccnc(C4CC4)c3)cc2C1` [Example 339, 6-(3-(2-cyclopropylpyridin-4-yl)-7,8-dihydro-1,6-naphthyridin-6(5H)-yl)-5-methylnicotinonitrile] were, in that order, 90% and 277 nM.
As to `Cc1cc(C#N)cnc1N1CCc2ncc(-c3ccnc(F)c3)cc2C1` [Example 340, 6-(3-(2-fluoropyridin-4-yl)-7,8-dihydro-1,6-naphthyridin-6(5)-yl)-5-methylnicotinonitrile], the Emax at 30 µM amounted to 81%. Under setting [1], the EC50 amounted to 7550 nM.
Take `COc1cc(-c2cnc3c(c2)CN(c2ncc(C#N)cc2C)CC3)c(Cl)cn1` [Example 341, 6-(3-(5-chloro-2-methoxypyridin-4-yl)-7,8-dihydro-1,6-naphthyridin-6(5H)-yl)-5-methylnicotinonitrile]: the maximal effect (Emax) at 30 µM worked out at 49%. Also, the EC50 under setting [1] came to 1490 nM.
`Cc1c(C#N)nnc(N2CCc3ncc(N4CCCn5nccc54)cc3C2)c1C` [Example 342, 6-(3-(6,7-dihydropyrazolo[1,5-a]pyrimidin-4(5H)-yl)-7,8-dihydro-1,6-naphthyridin-6(5H)-yl)-4,5-dimethylpyridazine-3-carbonitrile]: the Emax at 30 µM stood at 86%. In addition, the EC50 under setting [1] worked out at 64 nM.
The like results for `Cc1cc(C#N)cnc1N1CCc2ncc(-n3ccnc3)cc2C1` [Example 343, 6-(3-(1H-imidazol-1-yl)-7,8-dihydro-1,6-naphthyridin-6(5H)-yl)-5-methylnicotinonitrile] were, in that order, 97% and 226 nM.
The like results for `Cc1cc(C#N)cnc1N1CCc2ncc(-n3cccn3)cc2C1` [Example 344, 6-(3-(1H-pyrazol-1-yl)-7,8-dihydro-1,6-naphthyridin-6(5H)-yl)-5-methylnicotinonitrile] were, in that order, 88% and 380 nM.
The like results for `Cc1cc(C#N)cnc1N1CCc2ncc(-n3nccc3C)cc2C1` [Example 345, 5-methyl-6-(3-(5-methyl-1H-pyrazol-1-yl)-7,8-dihydro-1,6-naphthyridin-6(5H)-yl)nicotinonitrile] were, in that order, 86% and 341 nM.
For the compound `Cc1cc(C)n(-c2cnc3c(c2)CN(c2ncc(C#N)cc2C)CC3)n1` [Example 346, 6-(3-(3,5-dimethyl-1H-pyrazol-1-yl)-7,8-dihydro-1,6-naphthyridin-6(5H)-yl)-5-methylnicotinonitrile], the maximum response (Emax) at 30 µM came to 88%. For the same compound, the EC50 under setting [1] was determined as 1300 nM.
Taken in the same sequence, the figures for `Cc1cc(C#N)cnc1N1Cc2cc(C(F)(F)F)cnc2C(C)C1` (centres unmarked) [Example 347, 5-methyl-6-(8-methyl-3-(trifluoromethyl)-7,8-dihydro-1,6-naphthyridin-6(5H)-yl)nicotinonitrile] were 82% and 992 nM.
Taken in the same sequence, the figures for `Cc1c(C#N)nnc(N2Cc3cc(C(F)(F)F)cnc3C(C)C2)c1C` (centres unmarked) [Example 348, 4,5-dimethyl-6-(8-methyl-3-(trifluoromethyl)-7,8-dihydro-1,6-naphthyridin-6(5H)-yl)pyridazine-3-carbonitrile] were 70% and 331 nM.
Regarding `Cc1ccc(Oc2cnc3c(c2)CN(c2ncc(C#N)cc2C)CC3)c(F)c1` [Example 349, 6-(3-(2-fluoro-4-methylphenoxy)-7,8-dihydro-1,6-naphthyridin-6(5H)-yl)-5-methylnicotinonitrile], the Emax at 30 µM came out at 72%. The half-maximal effective concentration (EC50) under setting [1] was found to be 1120 nM.
As for `Cc1cc(C#N)cnc1N1CCc2ncc(Oc3cccc(F)c3F)cc2C1` [Example 350, 6-(3-(2,3-difluorophenoxy)-7,8-dihydro-1,6-naphthyridin-6(5H)-yl)-5-methylnicotinonitrile], the maximal effect (Emax) at 30 µM was 84%. Under setting [1], the concentration giving a half-maximal response (EC50) was found to be 547 nM.
The like results for `Cc1cc(C#N)cnc1N1CCc2ncc(Oc3cc(F)ccc3F)cc2C1` [Example 351, 6-(3-(2,5-difluorophenoxy)-7,8-dihydro-1,6-naphthyridin-6(5H)-yl)-5-methylnicotinonitrile] were, in that order, 88% and 160 nM.
